We go through one compound from patent US20090042993A1, “IDENTIFICATION OF NOVEL POST-TRANSLATIONAL PROTEIN MODIFICATIONS” (priority 2007, published 2009).

The subject of assay [1] is BACE1. The experiment in a line: BACE1 steady-state levels by Western blot in stably transfected CHO cells. It counts as cell-based, human. As to the method:
Chinese Hamster Ovary (CHO) cells were grown in DMEM (Gibco BRL—Invitrogen, Carlsbad, Calif.) supplemented with 10% fetal bovine serum (FBS) and penicillin/streptomycin (Mediatech, Inc., Herndon, Va.) as described before (Puglielli et al., 2001, Nat. Cell Biol. 3: 905-912; Puglielli et al., 2003, J. Biol. Chem. 278: 19777-19783; Costantini et al., 2005, Biochem. J. 391: 59-67; Costantini et al., 2006, EMBO J. 25: 1997-2006). Cells were maintained in a humidified atmosphere with 5% CO2. For ceramide treatment, C6-ceramide (also simply called ceramide herein) was administered at the final concentration of 10 μM; treatment was started when cells were ˜30% confluent and carried out for 4 days, unless specified otherwise. Treatment with proteasome inhibitors MG-132 (5 μM) and lactacystin (10 μM) was done for 10 hours, as described earlier (Qing et al., 2004, FASEB J. 18: 1571-1573).
Cell lysates were prepared in GTIP buffer (100 mM Tris-pH 7.6, 20 mM EDTA, 1.5 M NaCl) with 1% Triton X-100 (Roche, Basel, Switzerland), 0.25% NP40 (Roche), and a protease inhibitor cocktail (Roche) as described before (Puglielli et al., 2003, J. Biol. Chem. 278: 19777-19783; Costantini et al., 2005, Biochem. J. 391: 59-67). Briefly, cell monolayers were washed twice in PBS, scraped, transferred into eppendorf tubes, and centrifuged at 8,000 rpm for 5 min in a table-top centrifuge. Cell pellets were then lysed in ice for 30 min with the buffer indicated above, and centrifuged again at 14,000 rpm prior to the recollection of the protein extracts. Proteins were quantitated with the BCA Protein Assay (Pierce, Rockford, Ill.) following the manufacturer's instructions.
For the immunoprecipitation of BACE1, cell lysates were pre-cleared with BioMag Protein A (Polysciences, Inc., Warrington, Pa.); beads were used at the concentration of 15 μl of the slurry per sample and separated with a magnetic holder. BACE1 was then immunoprecipitated with anti-BACE1 antibodies overnight and recovered with BioMag Protein A as above. The immunoprecipitate-bead complexes were washed 3 times in PBS and boiled for 10 min in SDS sample buffer (Invitrogen) with β-mercaptoethanol. Beads were then separated and the samples were analyzed by reducing SDS-PAGE.
Western blotting was performed on 10% Bis-Tris, 4-12% Bis-Tris, or 7% Tris-Acetate SDS-PAGE systems (NuPAGE; Invitrogen) as described (Puglielli et al., 2001, Nat. Cell Biol. 3: 905-912; Puglielli et al., 2003, J. Biol. Chem. 278: 19777-19783; Costantini et al., 2005, Biochem. J. 391: 59-67; Costantini et al., 2006, EMBO J. 25: 1997-2006). The following antibodies were used: anti-BACE1 N-terminal (monoclonal antibody; R&D Systems, Minneapolis, Minn.); anti-BACE1 C-terminal (polyclonal antibody; Abcam, Cambridge, Mass.); anti-pro-BACE1 (polyclonal; Abcam); anti-acetylated lysine (monoclonal; Abcam); anti-calreticulin (ER marker, polyclonal; Abcam); anti-58 K Golgi/formiminotransferase cyclodeaminase (Golgi marker, polyclonal; Abcam); anti-syntaxin (Golgi marker, monoclonal; Abcam); anti-EEA1 (endosomes, monoclonal; BD Transduction Laboratories, Lexington, Ky.); anti-actin (polyclonal; Cell Signaling, Danvers, Mass.). Secondary antibodies (Amersham) were used at a 1:6000 dilution. Binding was detected by chemiluminescence (LumiGLO kit; KPL, Gaithersburg, Md.). Only a representative blot of at least three different experiments is shown throughout the paper.
FIG. 1 illustrates how BACE1 is transiently acetylated in the lumen of the ER. For this experiment, CHO cells expressing human BACE1 were treated with C6-ceramide (also simply called ceramide herein) for different periods of time. BACE1 was then immunoprecipitated and analyzed by Western blotting. FIG. 1(A): CHO cells stably expressing BACE1 were treated with ceramide for the indicated time. BACE1 was immunoprecipitated from total cell lysates, separated on a 7% Tris-Acetate NuPAGE system, and then analyzed by Western blot using either anti-BACE1 or anti-acetylated lysine antibodies. […]
(Immunoblotting shows a protein as a band on a membrane.)

Assay [2] deals with T1, ER membrane acetyl-CoA transport activity (Cricetulus griseus, UniProt G3H231).
T1 sequence (G3H231 1-550): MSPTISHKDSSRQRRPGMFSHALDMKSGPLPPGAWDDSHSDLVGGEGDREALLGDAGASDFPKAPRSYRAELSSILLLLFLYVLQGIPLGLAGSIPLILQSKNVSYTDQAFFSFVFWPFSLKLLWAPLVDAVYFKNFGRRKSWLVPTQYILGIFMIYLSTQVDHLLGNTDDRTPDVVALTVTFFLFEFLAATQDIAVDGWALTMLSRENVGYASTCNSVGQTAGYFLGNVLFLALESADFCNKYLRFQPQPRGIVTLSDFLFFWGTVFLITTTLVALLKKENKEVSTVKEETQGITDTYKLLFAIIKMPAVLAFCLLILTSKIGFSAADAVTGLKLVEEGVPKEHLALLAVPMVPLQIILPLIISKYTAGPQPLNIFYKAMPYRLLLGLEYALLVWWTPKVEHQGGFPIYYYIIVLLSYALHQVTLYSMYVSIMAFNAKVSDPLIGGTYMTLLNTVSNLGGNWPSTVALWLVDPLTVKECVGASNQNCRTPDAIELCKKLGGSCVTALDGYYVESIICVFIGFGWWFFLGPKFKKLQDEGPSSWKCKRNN
The experiment in a line: Acetyl-CoA transport assay into intact ER vesicles. It counts as biochemical, Chinese Hamster.
Experimental: Intact vesicles from the endoplasmic reticulum (ER) and the Golgi apparatus were purified on a 10-34% Iodixanol (OptiPrep; Axis-Shield, Norway) continuous gradient as described (Puglielli et al., 2001, Nat. Cell Biol. 3: 905-912). […] Fractions enriched in ER and Golgi markers (also called ER or Golgi vesicles herein) were separated, pooled together, and resuspended in isotonic/cryogenic buffer (0.25 M sucrose and 10 mM Tris-HCl, pH 7.4) in the presence of protease inhibitors (Roche). Latency of ER and Golgi vesicles was determined with the glucose-6-phosphatase (Clairmont et al., 1992, J. Biol. Chem. 267: 3983-3900) and the sialyl-transferase (Puglielli and Hirschberg, 1999, J. Biol. Chem. 274: 35596-35600) methods, respectively. The purity of the preparation was further confirmed by assaying the above enzymatic activities, together with transport of CMP-sialic acid.
Briefly, assays were performed in 100 μl final volume (isotonic/cryogenic buffer) using 25 to 50 μg of ER/Golgi vesicles protein. […] After 5 min at 30° C., reactions were stopped by lowering the temperature to 0-4° C. and by adding 100 μl of ice-cold isotonic/cryogenic buffer (described above). […] Pellets were then dissolved in 0.6 mL of NaOH 1 N; after neutralization with 0.2 mL of 4N HCl, samples were counted by scintillation spectrometry. […]
Asterisk (*) indicates statistical significance (n=3) (P<0.0005). FIG. 5(D): transport of CMP-sialic acid into ER and Golgi intact vesicles was measured as described in (A). […] FIG. 5(E): transport of ATP into ER intact vesicles obtained from control and ceramide-treated CHO cells was measured as described in FIG. 5(A). […]
Translocation was measured as described in the Materials and Methods section. […] FIG. 10(E): transport of ATP into ER intact vesicles obtained from control and ceramide-treated CHO cells was measured as described in FIG. 10(A). […]
Results are expressed as percent of control (no CoA; white bar) and are the average±S.D. Asterisk (*) indicates statistical significance. […]

With `CCCCCCCCCCCCC/C=C/[C@@H](O)[C@H](CO)NC(=O)CCCCC` [ceramide, C6-ceramide], in assay [1] (CHO cells expressing human BACE1, ceramide 10 μM, apparent plateau at day 4), the “steady-state levels of immature and mature BACE1” value is listed as “progressive increase in the steady-state levels”. Besides, the “steady-state levels of BACE1Ala” value in assay [1] (CHO cells stably expressing BACE1Ala grown with ceramide) was “not affected”. Besides, the “increase in the Vmax of acetyl-CoA transport” value in assay [2] (ER vesicles from ceramide treated cells vs untreated) is around 30%. Besides, the “Km of acetyl-CoA transport” value in assay [2] (ER vesicles from ceramide treated cells, Lineweaver-Burk) was “comparable to untreated cells”.
